After the bases stand the sugars from the 5' end (letter, count) and the backbone: PS all phosphorothioate, else s phosphorothioate and o phosphodiester by linkage. Methylation of C is not given here. l = locked nucleic acid (LNA); d = 2'-deoxy (DNA)

The data set has as its target SNHG14. The settings on record: ASO.
Where [1] appears, read: Mouse Primary Neuronal Cell, 0.005 µM.

With CTCTGCTTATAACTTT (sugars l4 d10 l2, PS), the target mRNA inhibition (Human Neuronal Cell, 0.2 µM) is 20% and the target mRNA inhibition (Human Neuronal Cell, 1 µM) amounted to 53%.

Consider CACCTTAAGTAACATT (sugars l4 d10 l2, PS), for which the target mRNA inhibition (Human Neuronal Cell, 0.2 µM) amounted to 19% and the target mRNA inhibition (Human Neuronal Cell, 1 µM) worked out at 21%.

As to “TTATACCTTTCTTTAACCCT (sugars ldddldddddddddddldll, PS)”, for the setting “Human Neuronal Cell, 7.5 µM”, the target mRNA inhibition was determined as 57%.

Consider “CACTAATAATTCACTTT (sugars l4 d11 l2, PS)”, for which the target mRNA inhibition reads like this: (Human Neuronal Cell, 0.2 µM) 31%; (Human Neuronal Cell, 1 µM) 49%.

For “AAATCTCAACTACCATTTTT (sugars ldllldddddddddddldll, PS)”, the target mRNA inhibition (Human Neuronal Cell, 7.5 µM) is 45%.

Turning to “ATATTGATTCAATTCCC (sugars l2 d1 l1 d10 l3, PS)”, the target mRNA inhibition (Human Neuronal Cell, 7.5 µM) was 65%.

For “ATATTGATTCAATTCCC (sugars lldddddddddldldll, PS)”, the target mRNA inhibition (Human Neuronal Cell, 7.5 µM) turned out to be 60%.

In the case of “ACTCTGCAATACACCAA (sugars l4 d8 l1 d2 l2, PS)”, the target mRNA inhibition (Human Neuronal Cell, 7.5 µM) stood at 57%.

As to “AGCAACATTATTAACCAC (sugars l1 d3 l1 d7 l6, PS)”, the target mRNA inhibition (Human Neuronal Cell, 7.5 µM) turned out to be 41%.

As for “GTTTATACCCTTTCCAA (sugars l3 d11 l3, PS)”, the target mRNA inhibition is 57% (Human Neuronal Cell, 0.2 µM) and 63% (Human Neuronal Cell, 1 µM).

Take “GAAAATCTCAACTACCATT (sugars l2 d1 l2 d10 l4, PS)”: for the setting “Human Neuronal Cell, 7.5 µM”, the target mRNA inhibition was found to be 60%.

On to “TTTATTTCCATTTATTTTC (sugars llddlldddddddldllll, PS)”, for which the target mRNA inhibition (Human Neuronal Cell, 7.5 µM) stood at 66%.

Consider GTTACCTACATCTCAT (sugars l3 d10 l3, PS), for which the target mRNA inhibition is, setting by setting: (Human Neuronal Cell, 0.2 µM) 3%; (Human Neuronal Cell, 1 µM) 32%; (Human Neuronal Cell, 5 µM) 18%; under setting [1], 93.4%.

As to “GCTCCATATTTAAATCC (sugars l4 d11 l2, PS)”, the target mRNA inhibition was 20% (Human Neuronal Cell, 0.2 µM) and 45% (Human Neuronal Cell, 1 µM).

As to “TTATAGCCATTCTATCT (sugars l1 d10 l2 d2 l2, PS)”, for the setting “Human Neuronal Cell, 7.5 µM”, the target mRNA inhibition worked out at 48%.

CTGTATACACCATCCC (sugars l2 d12 l2, PS): the target mRNA inhibition by setting is: (Human Neuronal Cell, 0.2 µM) 62%; (Human Neuronal Cell, 1 µM) 62%.

Regarding AAATATTGCCACCATT (sugars l2 d10 l4, PS), the target mRNA inhibition is, setting by setting: (Human Neuronal Cell, 0.2 µM) 51%; (Human Neuronal Cell, 1 µM) 63%.

For the sequence “ATTTACACTTAATTATACTT (sugars lllldllddddddlldddll, PS)”, the target mRNA inhibition (Human Neuronal Cell, 7.5 µM) amounted to 38%.

Turning to “TTTATCTATTTAATTTACA (sugars l4 d13 l2, PS)”, the target mRNA inhibition (Human Neuronal Cell, 0.2 µM) was 7% and the target mRNA inhibition (Human Neuronal Cell, 1 µM) stood at 6%.

On to GCTTCTACTTAAATAT (sugars l3 d10 l3, PS), for which the target mRNA inhibition (Human Neuronal Cell, 0.2 µM) is 27% and the target mRNA inhibition (Human Neuronal Cell, 1 µM) was 21%.

With “GATCATTCTCAACAATT (sugars l2 d1 l2 d6 l6, PS)”, where the note is “Human Neuronal Cell, 7.5 µM”, the target mRNA inhibition stood at 10%.

As for “GTTTCCATCTACTATTAAT (sugars ldddldddddddldldlll, PS)”, the target mRNA inhibition (Human Neuronal Cell, 7.5 µM) is 63%.

With “AATTATTTATACACCATCAT (sugars lldldlddddddddllldll, PS)”, the target mRNA inhibition (Human Neuronal Cell, 7.5 µM) was determined as 59%.

Regarding “TTATAGCCATTCTATCT (sugars l4 d7 l1 d3 l2, PS)”, the target mRNA inhibition (Human Neuronal Cell, 7.5 µM) was 44%.

Regarding “ATTGATTCAATTCCCTT (sugars l3 d8 l3 d1 l2, PS)”, for the setting “Human Neuronal Cell, 7.5 µM”, the target mRNA inhibition amounted to 51%.

Regarding “AGCAACATTATTAACCAC (sugars lddlddddddddldllll, PS)”, the target mRNA inhibition (Human Neuronal Cell, 7.5 µM) came out at 47%.

For TCACTGCCATCAATAC (sugars l4 d10 l2, PS), the target mRNA inhibition came to 42% (Human Neuronal Cell, 0.2 µM) and 45% (Human Neuronal Cell, 1 µM).

For the sequence “TGAAAATCTCAACTACCAT (sugars l4 d12 l3, PS)”, the target mRNA inhibition (Human Neuronal Cell, 7.5 µM) came out at 49%.

Take “CTGTATACACCATCCCA (sugars l1 d11 l2 d1 l2, PS)”: under “Human Neuronal Cell, 7.5 µM”, the target mRNA inhibition is 53%.

Regarding CTTTTAACCAGAGTG (sugars l4 d7 l4, PS), the target mRNA inhibition (Human Neuronal Cell, 7.5 µM) came to 54%.

Consider “TGTTTCCATCTACTATTA (sugars l1 d4 l1 d10 l2, PS)”, for which, under “Human Neuronal Cell, 7.5 µM”, the target mRNA inhibition turned out to be 60%.

As for ACTTAATTATACTTCC (sugars l4 d10 l2, PS), the target mRNA inhibition is 62% (Human Neuronal Cell, 0.2 µM) and 64% (Human Neuronal Cell, 1 µM).

On to “TATCTTTCCATTTATTTCCA (sugars l1 d17 l2, PS)”, for which the target mRNA inhibition (Human Neuronal Cell, 7.5 µM) was -7%.

In the case of “TTCCTTTCATTAACATTT (sugars l4 d12 l2, PS)”, the target mRNA inhibition runs as follows: (Human Neuronal Cell, 0.2 µM) 37%; (Human Neuronal Cell, 1 µM) 55%.

With “GAAAATCTCAACTACCATT (sugars l4 d10 l1 d1 l3, PS)”, under “Human Neuronal Cell, 7.5 µM”, the target mRNA inhibition is 45%.

“ACATCTCATACTTGCTT (sugars l2 d13 l2, PS)”: the target mRNA inhibition reads like this: (Human Neuronal Cell, 0.2 µM) 1%; (Human Neuronal Cell, 1 µM) 8%; (Human Neuronal Cell, 5 µM) 7%; under setting [1], 90.7%.

For “ATATTGATTCAATTCCC (sugars l2 d2 l1 d9 l3, PS)”, where the note is “Human Neuronal Cell, 7.5 µM”, the target mRNA inhibition was found to be 75%.

With “ATTGATTCAATTCCCTT (sugars lddlddddddddldlll, PS)”, the target mRNA inhibition (Human Neuronal Cell, 7.5 µM) was 67%.

As for “AATTTTTTTCTTACTATCTT (sugars l1 d12 l1 d2 l4, PS)”, the target mRNA inhibition (Human Neuronal Cell, 7.5 µM) was determined as 62%.

For the origin of these results see the OligoGym collection.
